What all share (format): cell-based
The test system of series [1] is MT-4 cells. Put plainly: Cytotoxicity: inhibitory effect on host cell viability, mock-infected MT-4 cells (MTT method). To be noted: human, mt-4 cells, 120 h. The procedure:
(§1) Activity of the compound against HIV-1 replication was based on the inhibition of virus induced cytopathogenicity in MT-4 cells. MT-4 cells were suspended in culture medium at 2.5×10^4 cells/ml and infected with HIV-1 at a multiplicity of infection (MOI) of 0.01. 100 μl of cell suspension was brought into microtiter tray wells containing various concentrations of the test compounds.
(§2) After 5 days of incubation at 37° C. using a CO2 incubator, the number of viable cells was determined by the MTT method.
(§3) The inhibitory effect on host cell viability (cytotoxicity) was also determined by the MTT method. All activities of the compounds are expressed as 50% inhibitory concentration, i.e., the concentration required to reduce the number of HIV-1-infected MT-4 cells or mock-infected MT-4 cells by 50%. These are expressed using EC50 and CC50. SI is expressed by the ratio of CC50 /EC50. (Reference document: Pauwels, et al., J. Virol Methods, 20 (1988) 309~321).
(§4) According to this method, the anti-HIV assay was carried out using the compounds obtained in Examples 9 to 14. In addition, AZT (3'-azido-3'-deoxythymidine) known as an anti-AIDS agent was employed as a comparative example.

Experiment in series [2]: as above
To be noted: human; mock-infected MT-4 cells; 50% reduction of viable cells; MTT method; 5 days at 37° C. The procedure: as §1, §2, §3, §4

Series [3] deals with HIV-1. Kind of series: Anti-HIV assay: inhibition of virus induced cytopathogenicity in MT-4 cells (MTT method). As to conditions: for EC50: HIV-1-infected MT-4 cells, MOI 0.01, 5 days at 37° C., MTT method; for SI: ratio of CC50/EC50, 7200 min. The protocol: as §1, §2, §3, §4

≈ marks a conversion by molar mass, not a printed value. Like-named read-outs stand apart in the source and are kept apart here.

In turn, `Cc1c(C)c2c(c(C)c1O[C@@H]1O[C@H](COS(=O)(=O)O)[C@@H](O[C@@H]3O[C@H](COS(=O)(=O)O)[C@H](O[C@@H]4O[C@H](COS(=O)(=O)O)[C@H](O[C@@H]5O[C@H](COS(=O)(=O)O)[C@H](OS(=O)(=O)O)[C@H](OS(=O)(=O)O)[C@H]5OS(=O)(=O)O)[C@H](OS(=O)(=O)O)[C@H]4OS(=O)(=O)O)[C@H](OS(=O)(=O)O)[C@H]3OS(=O)(=O)O)[C@H](OS(=O)(=O)O)[C@H]1OS(=O)(=O)O)CCC(C)(CCCC(C)CCCC(C)CCCC(C)C)O2` (mixture of isomers) [Example 13, sulfated dl-α-tocopheryl β-D-galactosyl(1→4)-β-D-galactosyl(1→4)-β-D-lactoside] yielded a cytotoxic concentration (CC50) in series [1] of 621 µg/mL.

Compound `Cc1cn([C@H]2C[C@H](N=[N+]=[N-])[C@@H](CO)O2)c(=O)[nH]c1=O` [AZT, 3'-azido-3'-deoxythymidine, reference compound] came in with a CC50 at 120 h in series [2] of 2.88 µg/mL (≈ 10.8 µM). Moreover, in series [3] (Human immunodeficiency virus 1, MT4, 120 h, read-out: EC50), the EC50 was determined as 0.0013 µg/mL (≈ 0.00486 µM). In addition, the SI in series [3] was 2160.

In the case of “sulfated dl-α-tocopheryl β-D-galactosyl(1→4)-β-D-galactosyl(1→4)-β-D-lactoside [Example 14]”, the CC50 in series [1] was 656 µg/mL. Further, in series [3], the EC50 was found to be 0.57 µg/mL and the SI turned out to be 1151.

“sulfated dl-α-tocopheryl β-D-galactosyl(1→4)-β-D-lactoside [Example 9]” showed a CC50 in series [1] of 606 µg/mL. In addition, in series [3], the EC50 came to 1.03 µg/mL and the SI was 587.

In series [1], “sulfated ester sodium salt of dl-α-tocopheryl β-D-glucosyl(1→3)-{β-D-glucosyl(1→3)}3 -β-D-glucoside (1) [Example 10]” had a CC50 of over 480 µg/mL. Moreover, in series [3], the EC50 was 0.52 µg/mL and the SI is on record as over 920.

In series [1], “sulfated ester sodium salt of dl-α-tocopheryl β-D-glucosyl(1→3)-{β-D-glucosyl(1→3)}3 -β-D-glucoside (2) [Example 11]” gave a CC50 of over 480 µg/mL. In addition, in series [3], the EC50 was 0.45 µg/mL and the SI was over 1000.

For the compound “sulfated ester sodium salt of dl-α-tocopheryl β-D-glucosyl(1→3)-{β-D-glucosyl(1→3)}7 -β-D-glucoside [Example 12]”, the CC50 in series [1] is over 480 µg/mL. In series [3], the EC50 was found to be 0.44 µg/mL and the SI is on record as over 1000.

Source of the values: patent US5280111A, “Sulfated tocopheryl oligosaccharides and antiviral agents including the same as active ingredients” (Dainippon Ink and Chemicals, Inc., priority 1991, dated 1994).
